“Also recorded” adds a separate entry of the source. Where two headings read alike, the source gives them in different places.
How the values were obtained:
[1] = Transchelation study: 89Zr-FSC derivative complexes with 1000-fold molar excess of DFO; assay type: physicochemical; conditions: RT, after 7 days
Description: (§1) [^89Zr]Zr-DFO (50 µL) was mixed with a 1000-fold molar excess of either FSC(succ)2AA or FSC(succ)3 and [^89Zr]Zr-TAFC (or [^89Zr]Zr-FSC(succ)2AA, [^89Zr]Zr-FSC(succ)3) (50 µL each) was mixed with a 1000-fold molar excess of DFO and incubated for seven days at RT. At selected time points, aliquots of the solutions were analyzed in triplicate directly via analytical RP-HPLC. The transchelation was determined by the ratio of [^89Zr]Zr-DFO and [^89Zr]Zr-FSC derivatives.

[2] = Protein binding assay in fresh human serum (size exclusion spin column); assay type: in vitro ADME; conditions: 37 °C, incubation time 7 days
Description: The protein binding property was evaluated by incubating [^89Zr]Zr-FSC(succ)2AA or [^89Zr]Zr-FSC(succ)3 for seven days at 37 °C in fresh human serum. Subsequently, 30 µL of the solution was passed through a size exclusion spin column (MicroSpinG-50 column, GE Healthcare, Buckinghamshire, UK) via centrifugation at 2000 rcf for 2 min. Protein binding of the complexes in triplicate was determined by measuring the activity on the column (non-protein bound) and the activity in the eluate (protein bound) in the gamma counter.

[3] = Stability assay in human serum; assay type: in vitro ADME; conditions: 37 °C, incubation time 7 days
Description: (§2) Determination of the stability of [^89Zr]Zr-DFO, [^89Zr]Zr-TAFC, [^89Zr]Zr-FSC(succ)2AA and [^89Zr]Zr-FSC(succ)3 was carried out by incubating the radioligands in PBS, a 1000-fold molar excess of ethylenediaminetetraacetic acid (EDTA) solution (radioligand vs. […] Then, the precipitate was washed three times using CH3CN before analysis.

[4] = Acid dissociation study in 1000-fold molar excess of EDTA solution; assay type: physicochemical
Description: as §2

[5] = Distribution coefficient (logD), octanol/PBS; assay type: physicochemical; conditions: n = 5
Description: A volume of 500 µL PBS including 0.5 MBq radioligand ([^89Zr]Zr-FSC(succ)2AA or [^89Zr]Zr-FSC(succ)3) was combined with 500 µL octanol. The mixture was vortexed for 15 min, and centrifuged for 2 min at 2000 rcf. Subsequently, 50 µL aliquots of the aqueous and the octanol layer were collected, measured in a 2480 Wizard^2 Automatic Gamma Counter (Perkin Elmer, Vienna, Austria), and distribution coefficient (logD) values were calculated using Excel 2013 (n = 5) (Redmond, WA, USA).

[6] = Biodistribution study in BALB/c mice; assay type: in vivo; conditions: i.v., 6 h p.i., n = 4
Description: For the evaluation of biodistribution, four female BALB/c mice (Charles River Laboratories, Sulzfeld, Germany) were intravenously injected with [^89Zr]Zr-FSC(succ)3 (1.5 MBq/mouse, 4.8 µg precursor) or [^89Zr]Zr-TAFC (1.5 MBq/mouse, 4 µg) into the tail vein and sacrificed by cervical dislocation at 6 h post injection (p.i.). Organs (spleen, pancreas, stomach, intestine, kidney, liver, heart, and lung), blood, muscle tissue, and bone were dissected, weighed and then measured in the gamma counter to calculate the percentage of injected dose per gram of tissue (% ID/g). Statistical analysis was performed using an independent two-population t-test (significance level p = 0.05) and Origin 6.1 software (Northampton, MA, USA).

[7] = MicroPET/CT imaging, image-based quantitation of bone uptake (knee); assay type: in vivo, BALB/c mice; conditions: BALB/c mouse, i.v., 24 h p.i., mean of left and right knees, n = 1
Description: Micro-Positron Emission Tomography/computer tomography (MicroPET/CT) imaging studies were carried out using an Inveon microPET/CT scanner (Siemens Preclinical Solutions, Knoxville, TN, USA). Healthy female BALB/c mice were injected intravenously with 5 MBq of either [^89Zr]Zr-FSC(succ)3 (16 µg, n = 1) or [^89Zr]Zr-TAFC (13 µg, n = 1). MicroPET/CT images were acquired under general anesthesia (isoflurane/O2) for 20 min. Imaging data were recorded via static scans at 80 min and 24 h p.i. The microPET/CT scans were reconstructed and merged with OSEM3D-SPMAP (PET, matrix size 256 × 256) and Feldkamp (CT, Shepp Logan filter). For evaluation of bone uptake, image-based quantitation was carried out by selecting volumes of interest around each knee region and % ID/cm^3 were calculated for both time points (VivoQuant image analysis software, Invicro LLC, Boston, MA, USA) and expressed as mean values of left and right knees to compare both compounds.

[8] = Solubility in water; assay type: physicochemical; conditions: unlabeled chelator
[9] = set-up: method as in PMID 25941834; conditions: incubation time 7 days, previously reported data; cited from earlier work
[10] = set-up: method as in PMID 25941834; conditions: previously reported data; cited from earlier work
[11] = Transchelation study: [89Zr]Zr-DFO with 1000-fold molar excess of FSC(succ)2AA or FSC(succ)3; assay type: physicochemical; conditions: 1000-fold molar excess of FSC(succ)2AA or FSC(succ)3, RT, within 1 h
Description: as §1

[12] = set-up: method as in PMID 25941834; conditions: human serum, incubation time 7 days, previously reported data; cited from earlier work

SMILES | intact complex [1] [%] | Protein Binding (%) [2] [%] | Stability in Human Serum (%) [3] [%] | intact complex ([4]; pH 6, 37 °C) [%] | resistance to transchelation ([4]; pH 7, over seven days, 37 °C) | Log D [5] | activity in blood [6] [% ID/g] | bone uptake in the knee [7] [% ID/cm^3] | intact complex ([4]; pH 4, day 7, 37 °C) [%] | solubility in water [8] | Stability in Human Serum (%) [9] [%] | Log D [10] | Protein Binding (%) [12] [%] | also measured
CC(=O)NC1CCCN([O-])C(=O)C=C(C)CCOC(=O)C(NC(=O)CCC(=O)[O-])CCCN([O-])C(=O)C=C(C)CCOC(=O)C(NC(=O)CCC(=O)[O-])CCCN([O-])C(=O)C=C(C)CCOC1=O.[89Zr+4] (mixture of isomers) [[^89Zr]Zr-FSC(succ)2AA] | 30.8 | 5.9 ± 1.6 | 99.4 | 76 | excellent resistance to transchelation | −3.3 ± 0.1 |  |  |  |  |  |  |  | 
CC1=CC(=O)N([O-])CCCC(NC(=O)CCC(=O)[O-])C(=O)OCCC(C)=CC(=O)N([O-])CCCC(NC(=O)CCC(=O)O)C(=O)OCCC(C)=CC(=O)N([O-])CCCC(NC(=O)CCC(=O)[O-])C(=O)OCC1.[89Zr+4] (mixture of isomers) [[^89Zr]Zr-FSC(succ)3] | 62.1 | 8.3 ± 3.5 | 99.5 | 97.8 | excellent resistance to transchelation | −3.5 ± 0.4 | 0.11 ± 0.08 | 0.026 | 87.9 |  |  |  |  | activity in bone [6]: 0.24 ± 0.04 % ID/g; activity in heart [6]: 0.28 ± 0.08 % ID/g; activity in lung [6]: 0.21 ± 0.04 % ID/g; activity in muscle [6]: 0.25 ± 0.07 % ID/g
CC(=O)NC1CCCN(O)C(=O)/C=C(/C)CCOC(=O)C(NC(=O)CCC(=O)O)CCCN(O)C(=O)/C=C(/C)CCOC(=O)C(NC(=O)CCC(=O)O)CCCN(O)C(=O)/C=C(/C)CCOC1=O (stereo not drawn) [FSC(succ)2AA, Fusarinine C(succ)2AA] |  |  |  |  |  |  |  |  |  | high solubility in water |  |  |  | 
C/C1=C/C(=O)N(O)CCCC(NC(=O)CCC(=O)O)C(=O)OCC/C(C)=C\C(=O)N(O)CCCC(NC(=O)CCC(=O)O)C(=O)OCC/C(C)=C\C(=O)N(O)CCCC(NC(=O)CCC(=O)O)C(=O)OCC1 (stereo not drawn) [FSC(succ)3, Fusarinine C (succ)3] |  |  |  |  |  |  |  |  |  | high solubility in water |  |  |  | 
CC(=O)N([O-])CCCCCNC(=O)CCC(=O)N([O-])CCCCCNC(=O)CCC(=O)N([O-])CCCCCN.[89Zr+4] [[^89Zr]Zr-DFO, ^89Zr-desferrioxamine B] |  |  |  |  |  |  |  |  |  |  | 99.3 | −3.0 ± 0.1 | 8.7 ± 1.0 | acid dissociation (decomposition) ([4]; pH 4): totally decomposing on day 3; transchelation ([4]; pH 7, over seven days, 37 °C): ~60%; transchelation of 89Zr from [89Zr]Zr-DFO to FSC(succ)2AA or FSC(succ)3 [11]: Almost quantitative transchelation; also recorded: total transchelation
CC(=O)NC1CCCN([O-])C(=O)/C=C(/C)CCOC(=O)C(NC(C)=O)CCCN([O-])C(=O)/C=C(/C)CCOC(=O)C(NC(C)=O)CCCN([O-])C(=O)/C=C(/C)CCOC1=O.[89Zr+4] (stereo not drawn) [[^89Zr]Zr-TAFC, ^89Zr-triacetylfusarinine C, reference compound] | 39.8 |  |  | 94.4 | excellent resistance to transchelation |  | 0.05 ± 0.01 | 0.016 | 70.3 |  | 99.5 | −2.0 ± 0.0 | 6.8 ± 0.5 | 
